Results on 12 molecules are retold here after patent publication US20260184710A1, “CASITAS B-LINEAGE LYMPHOMA PROTOONCOGENE B (CBL-B) DEGRADING COMPOUNDS AND ASSOCIATED METHODS OF USE” (Arvinas Operations, Inc., priority 2022, published 2026).

The assay has as its target T1, Cbl-b (Homo sapiens, UniProt Q13191).
T1 construct: Cbl-b-HiBit KI Jurkat Cells were purchased from Promega; host or cells: Cbl-b-HiBiT knock-in Jurkat cells
Description: Cbl-b Degradation Method B (Nano-Glo HiBiT lytic detection). The format is cell-based. The following applies: Cbl-b-HiBit KI Jurkat Cells, incubated at least 6-24 hours; for DC50: half maximal degradation, read-out: Cbl-b Degredation Method B IC50; for Dmax: maximum degradation observed, read-out: Cbl-b Degredation Method B Dmax (%). As for the experimental part: Cbl-b Degradation Method B [table] Cbl-b-HiBit KI Jurkat Cells were purchased from Promega, and cell media consisted of RPMI 1640 with 10% […] and 1% pen/strep. The cells were counted, measured for viability, and 35 μL of the cell solution was seeded into 384 well flat bottom plates at a ratio of 20,000 cells per 35 μL. After which, the plates were incubated for ˜24 hours at 37° C. and 5% CO2. Compounds were ordered from Evotec in a 384 well plate at a 1 mM top concentration in DMSO and serially diluted 1:3 in DMSO for an 11-point dose response. Using the Bravo instrument, 1 uL of compound solution or DMSO was transferred to 125 uL of media. Each well was treated with 5 μL of compound plus media mixture or DMO and subsequently incubated for at least 6-24 hours at 37° C. and 5% CO2. After incubation, 30 μL of either NanoGlo media was added to each cell, and the plates read on the Synergy Neo2 machine. The concentration of an exemplary compound that leads to half maximal degradation (DC50) as well as the maximum degradation observed (Dmax, conventionally expressed as a percentage of control) is shown below in Table 2.

Each structure is given as a SMILES string.

T1 sequence (Q13191 whole entry): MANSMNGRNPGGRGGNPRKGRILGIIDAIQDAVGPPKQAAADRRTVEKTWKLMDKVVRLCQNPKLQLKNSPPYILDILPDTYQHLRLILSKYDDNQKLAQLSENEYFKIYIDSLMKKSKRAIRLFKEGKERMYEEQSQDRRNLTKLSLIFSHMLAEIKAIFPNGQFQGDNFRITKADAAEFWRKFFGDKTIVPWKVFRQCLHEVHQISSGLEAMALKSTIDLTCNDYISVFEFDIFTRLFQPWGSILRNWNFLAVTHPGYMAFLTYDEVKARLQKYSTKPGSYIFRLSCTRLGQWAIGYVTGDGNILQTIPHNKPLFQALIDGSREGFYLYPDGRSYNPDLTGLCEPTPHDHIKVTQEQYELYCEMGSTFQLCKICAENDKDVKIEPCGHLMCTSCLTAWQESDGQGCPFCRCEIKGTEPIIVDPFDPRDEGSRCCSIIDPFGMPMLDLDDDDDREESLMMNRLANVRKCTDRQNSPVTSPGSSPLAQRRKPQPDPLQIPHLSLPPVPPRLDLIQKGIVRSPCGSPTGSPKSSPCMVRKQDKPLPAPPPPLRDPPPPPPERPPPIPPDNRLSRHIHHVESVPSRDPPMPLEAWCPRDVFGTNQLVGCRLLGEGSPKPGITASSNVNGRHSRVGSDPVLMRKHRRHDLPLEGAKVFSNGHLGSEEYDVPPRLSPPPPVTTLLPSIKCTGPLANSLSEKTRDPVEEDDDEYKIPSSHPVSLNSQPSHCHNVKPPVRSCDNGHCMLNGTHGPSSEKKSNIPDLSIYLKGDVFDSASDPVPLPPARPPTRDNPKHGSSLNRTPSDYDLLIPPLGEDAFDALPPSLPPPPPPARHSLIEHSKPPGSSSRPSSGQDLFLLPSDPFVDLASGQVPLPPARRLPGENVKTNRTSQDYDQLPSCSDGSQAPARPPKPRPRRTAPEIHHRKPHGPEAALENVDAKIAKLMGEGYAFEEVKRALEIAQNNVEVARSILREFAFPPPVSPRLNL

Consider `CC(C)n1c(=O)n(C2CCC(=O)NC2=O)c2ccc(N3CCC(O[C@H]4CC[C@@H](CN5CCN(C[C@H]6CCCN(Cc7cc(C(F)(F)F)c8cn(-c9cccc(C%10(Cc%11nncn%11C)COC%10)c9)nc8c7)C6)C(C)(C)C5)CC4)CC3)cc21` (stereo partly drawn) [Example 266, 3-[2-oxo-3-(propan-2-yl)-5-(4-{[(1r,4r)-4-[(3,3-dimethyl-4-{[(3S)-1-{[2-(3-{3-[(4-methyl-4H-1,2,4-triazol-3-yl)methyl]oxetan-3-yl}phenyl)-4-(trifluoromethyl)-2H-indazol-6-yl]methyl}piperidin-3-yl]methyl}piperazin-1-yl)methyl]cyclohexyl]oxy}piperidin-1-yl)-2,3-dihydro-1H-1,3-benzodiazol-1-yl]piperidine-2,6-dione], for which the DC50 is less than 5 nM and the maximal degradation (Dmax) was greater than 70%. Taken in the same sequence, the figures for `Cn1cnnc1CC1(c2cccc(-n3cc4c(C(F)(F)F)cc(CN5CCC[C@H](CN6CCN(C[C@H]7CC[C@@H](OC8CCN(c9ccc%10c(c9F)CN(C9CCC(=O)NC9=O)C%10=O)CC8)CC7)CC6(C)C)C5)cc4n3)c2)COC1` (stereo partly drawn) [Example 267, 3-[4-fluoro-1-oxo-5-(4-{[(1r,4r)-4-[(3,3-dimethyl-4-{[(3S)-1-{[2-(3-{3-[(4-methyl-4H-1,2,4-triazol-3-yl)methyl]oxetan-3-yl}phenyl)-4-(trifluoromethyl)-2H-indazol-6-yl]methyl}piperidin-3-yl]methyl}piperazin-1-yl)methyl]cyclohexyl]oxy}piperidin-1-yl)-2,3-dihydro-1H-isoindol-2-yl]piperidine-2,6-dione] were less than 5 nM and greater than 70%. With `Cn1cnnc1CC1(c2cccc(N3Cc4c(cc(CN5CCCC(OC6CCN(c7ccc8c(c7F)CN(C7CCC(=O)NC7=O)C8=O)CC6)C5)cc4C(F)(F)F)C3=O)c2)COC1` (stereo not shown) [Example 156, 3-(4-fluoro-5-{4-[(1-{[2-(3-{3-[(4-methyl-4H-1,2,4-triazol-3-yl)methyl]oxetan-3-yl}phenyl)-3-oxo-7-(trifluoromethyl)-2,3-dihydro-1H-isoindol-5-yl]methyl}piperidin-3-yl)oxy]piperidin-1-yl}-1-oxo-2,3-dihydro-1H-isoindol-2-yl)piperidine-2,6-dione], the DC50 was greater than 500 nM. Take `CC1c2nc(N3CCC(O[C@H]4CC[C@H](CN5C[C@H]6C[C@@H]5CN6Cc5cc6c(c(C(F)(F)F)c5)CN(c5cccc(C7(Cc8nncn8C)CC7)c5)C6=O)CC4)CC3)ccc2C(=O)N1C1CCC(=O)NC1=O` (stereo partly drawn) [Example 222, 3-[7-methyl-5-oxo-2-(4-{[(1r,4r)-4-{[(1R,4R)-5-{[2-(3-{1-[(4-methyl-4H-1,2,4-triazol-3-yl)methyl]cyclopropyl}phenyl)-3-oxo-7-(trifluoromethyl)-2,3-dihydro-1H-isoindol-5-yl]methyl}-2,5-diazabicyclo[2.2.1]heptan-2-yl]methyl}cyclohexyl]oxy}piperidin-1-yl)-5H,6H,7H-pyrrolo[3,4-b]pyridin-6-yl]piperidine-2,6-dione]: the DC50 is less than 5 nM and the Dmax was 35 to 70%. As to `Cc1cc(N2CCC(O[C@H]3CC[C@H](CN4CCN(Cc5cc6c(c(C(F)(F)F)c5)CN(c5cccc(C7(Cc8nncn8C)CC7)c5)C6=O)C(C)(C)C4)CC3)CC2)c(F)c2c1C(=O)N(C1CCC(=O)NC1=O)C2` (stereo partly shown) [Example 227, 3-[4-fluoro-7-methyl-1-oxo-5-(4-{[(1r,4r)-4-[(3,3-dimethyl-4-{[2-(3-{1-[(4-methyl-4H-1,2,4-triazol-3-yl)methyl]cyclopropyl}phenyl)-3-oxo-7-(trifluoromethyl)-2,3-dihydro-1H-isoindol-5-yl]methyl}piperazin-1-yl)methyl]cyclohexyl]oxy}piperidin-1-yl)-2,3-dihydro-1H-isoindol-2-yl]piperidine-2,6-dione], the DC50 is less than 5 nM and the Dmax was greater than 70%. In the case of `CC1c2nc(N3CCC(O[C@H]4CC[C@H](CN5CCN(Cc6cc(C(F)(F)F)c7cn(-c8cccc(C9(Cc%10nncn%10C)CCC9)c8)nc7c6)C(C)(C)C5)CC4)CC3)ccc2C(=O)N1C1CCC(=O)NC1=O` (relative stereo) [Example 255, rel-3-[7-methyl-5-oxo-2-(4-{[(1r,4r)-4-[(3,3-dimethyl-4-{[2-(3-{1-[(4-methyl-4H-1,2,4-triazol-3-yl)methyl]cyclobutyl}phenyl)-4-(trifluoromethyl)-2H-indazol-6-yl]methyl}piperazin-1-yl)methyl]cyclohexyl]oxy}piperidin-1-yl)-5H,6H,7H-pyrrolo[3,4-b]pyridin-6-yl]piperidine-2,6-dione], the DC50 was greater than 500 nM.

Turning to `Cc1cc(N2CCC(CN3CCCN(c4cc5c(c(C(F)(F)F)c4)CN(c4cccc([C@]6(Cc7nncn7C)C[C@@H](C#N)C6)c4)C5=O)CC3)CC2)c(F)c2c1C(=O)N(C1CCC(=O)NC1=O)C2` (stereo partly shown) [Example 170, (1r,3r)-3-(3-{6-[4-({1-[2-(2,6-dioxopiperidin-3-yl)-4-fluoro-7-methyl-1-oxo-2,3-dihydro-1H-isoindol-5-yl]piperidin-4-yl}methyl)-1,4-diazepan-1-yl]-1-oxo-4-(trifluoromethyl)-2,3-dihydro-1H-isoindol-2-yl}phenyl)-3-[(4-methyl-4H-1,2,4-triazol-3-yl)methyl]cyclobutane-1-carbonitrile], the DC50 is greater than 500 nM. As for `Cn1cnnc1CC1(c2cccc(N3Cc4c(cc(CN5CC(C6CN(c7ccc(Oc8ccc9c(c8)C(=O)N(C8CCC(=O)NC8=O)C9=O)cc7)C6)C5)cc4C(F)(F)F)C3=O)c2)COC1` (stereo not shown) [Example 64, 2-(2,6-dioxopiperidin-3-yl)-5-[4-(1′-{[2-(3-{3-[(4-methyl-4H-1,2,4-triazol-3-yl)methyl]oxetan-3-yl}phenyl)-3-oxo-7-(trifluoromethyl)-2,3-dihydro-1H-isoindol-5-yl]methyl}-[3,3′-biazetidin]-1-yl)phenoxy]-2,3-dihydro-1H-isoindole-1,3-dione], the DC50 is greater than 500 nM. For the molecule `CC1c2nc(N3CCC(O[C@H]4CC[C@H](CN5CCN(Cc6cc(C(F)(F)F)c7cn(-c8cccc(C9(Cc%10nncn%10C)COC9)c8)nc7c6)CC5)CC4)CC3)ccc2C(=O)N1C1CCC(=O)NC1=O` (stereo partly shown) [Example 216, 3-[7-methyl-5-oxo-2-(4-{[(1r,4r)-4-[(4-{[2-(3-{3-[(4-methyl-4H-1,2,4-triazol-3-yl)methyl]oxetan-3-yl}phenyl)-4-(trifluoromethyl)-2H-indazol-6-yl]methyl}piperazin-1-yl)methyl]cyclohexyl]oxy}piperidin-1-yl)-5H,6H,7H-pyrrolo[3,4-b]pyridin-6-yl]piperidine-2,6-dione], the DC50 is less than 5 nM and the greatest degradation seen (Dmax) is less than 35%. Turning to `C[C@@H]1C[C@H](CN2CCC(CN3CCC(CN4CCN(c5ccc6c(c5)C(=O)N(C5CCC(=O)NC5=O)C6=O)CC4)CC3)CC2)CN(Cc2cc3c(c(C(F)(F)F)c2)CN(c2cccc(C4(Cc5nncn5C)COC4)c2)C3=O)C1` (stereo partly drawn) [Example 72, 2-(2,6-dioxopiperidin-3-yl)-5-[4-({1-[(1-{[(3R,5R)-5-methyl-1-{[2-(3-{3-[(4-methyl-4H-1,2,4-triazol-3-yl)methyl]oxetan-3-yl}phenyl)-3-oxo-7-(trifluoromethyl)-2,3-dihydro-1H-isoindol-5-yl]methyl}piperidin-3-yl]methyl}piperidin-4-yl)methyl]piperidin-4-yl}methyl)piperazin-1-yl]-2,3-dihydro-1H-isoindole-1,3-dione], the DC50 was less than 5 nM and the maximal degradation (Dmax) lay in the range of 35 to 70%.

In the case of `Cc1cc(N2CCC(CN3CCC4(CC3)CN(c3cc(C(F)(F)F)c5cn(-c6cccc([C@]7(Cc8nncn8C)C[C@@H](C#N)C7)c6)nc5c3)C4)CC2)c(F)c2c1C(=O)N(C1CCC(=O)NC1=O)C2` (stereo partly shown) [Example 154, 3-[3-[6-[7-[[1-[2-(2,6-dioxo-3-piperidyl)-4-fluoro-7-methyl-1-oxo-isoindolin-5-yl]-4-piperidyl]methyl]-2,7-diazaspiro[3.5]nonan-2-yl]-4-(trifluoromethyl)indazol-2-yl]phenyl]-3-[(4-methyl-1,2,4-triazol-3-yl)methyl]cyclobutanecarbonitrile], the DC50 was greater than 500 nM. As for `Cn1cnnc1C[C@]1(c2cccc(N3Cc4c(cc(CN5CCN(C[C@H]6CC[C@H](OC7CCN(c8cccc(C(=O)NC9CCC(=O)NC9=O)c8)CC7)CC6)CC5)cc4C(F)(F)F)C3=O)c2)C[C@H](C#N)C1` (stereo partly shown) [Example 198, N-(2,6-dioxopiperidin-3-yl)-3-(4-{[(1r,4r)-4-({4-[(3-oxo-2-{3-[(1r,3r)-3-cyano-1-[(4-methyl-4H-1,2,4-triazol-3-yl)methyl]cyclobutyl]phenyl}-7-(trifluoromethyl)-2,3-dihydro-1H-isoindol-5-yl)methyl]piperazin-1-yl}methyl)cyclohexyl]oxy}piperidin-1-yl)benzamide], the DC50 fell in the range of 5 to 50 nM and the Dmax was less than 35%.

A word on the Dmax: it is the greatest extent of degradation seen.
